Measurements published in paper PMC9736157 (Molecules, 2022).
Like-named read-outs stand apart in the source and are kept apart here.

Assays:
BRAF^V600E [1] = test system: T1, BRAF^V600E; assay: Western blot, BRAF^V600E degradation in A375; type: cell-based; conditions: for BRAF^V600E degradation: A375, 24 h, 100–500 nM; for BRAF^V600E degradation at higher concentration: A375, up to 10 µM (Figure S4)
T1 construct: endogenous in cells; host or cells: A375 and Colo205 cell lines
Method: (§1) Finally, we investigated the capability of the most antiproliferative compounds in interfering with BRAF pathway, favoring target degradation. To this end, Western blot analysis was conducted 24 h after incubation with 10 and 11 in both A375 and Colo205 cell lines. […] This observation was consistent with their ability to inhibit BRAF^V600E.
(§2) To measure the capability of our compounds to interfere with BRAF pathway, pre-treated A375 and Colo205 cells were lysed. We then performed protein analysis through Western blot by using the following primary antibodies: anti-phospho ERK 1/2 (clone E10; dilution 1:1000; Cell Signaling Technology, Danvers, MA, USA) and anti-ERK (clone 137F5; dilution 1:1000; Cell Signaling Technology); anti-phospho MEK (clone S217/221; dilution 1:1000; Cell Signaling Technology); anti-MEK1,2 (clone 9122; dilution 1:1000; Cell Signaling Technology); anti-BRAF v600e (dilution 1:1000; Abcam, Cambridge, UK); and anti-total BRAF (dilution 1:1000; ThermoFisher, Waltham, MA, USA). Vinculin (clone E1E9B; dilution 1:1000; Cell Signaling Technology) was used as a loading control. The total protein amount was determined using the bicinchoninic acid (BCA) protein assay reagent (Thermo Scientific, Waltham, MA, USA). Equivalent amounts of protein were separated by SDS–PAGE on precast Bolt 4–12% Bis-Tris gel (Invitrogen, Carlsbad, CA, USA). Proteins were then transferred from gel to nitrocellulose with a Trans-Blot Turbo transfer system (Biorad, Hercules, CA, USA), probed with goat anti-rabbit IgG (H+L) secondary antibody, HRP conjugate (Invitrogen) or goat anti-mouse IgG (H+L) secondary antibody, HRP conjugate (Jackson ImmunoResearch Inc., Langcaster, PA, USA), and detected using enhanced chemiluminescence technique (Western Lightning Plus-ECL, Enhanced Chemiluminescence Substrate; Perkin Elmer, catalog # NEL105001EA, Waltham, MA, USA).

[2] = test system: phosphorylation of MEK and ERK; assay: Western blot, BRAF signaling in A375; type: cell-based; conditions: A375, 24 h incubation
Method: as §1
(§3) To measure the capability of our compounds to interfere with BRAF pathway, pre-treated A375 and Colo205 cells were lysed. […] The total protein amount was determined using the bicinchoninic acid (BCA) protein assay reagent (Thermo Scientific, Waltham, MA, USA). […] Proteins were then transferred from gel to nitrocellulose with a Trans-Blot Turbo transfer system (Biorad, Hercules, CA, USA), probed with goat anti-rabbit IgG (H+L) secondary antibody, HRP conjugate (Invitrogen) or goat anti-mouse IgG (H+L) secondary antibody, HRP conjugate (Jackson ImmunoResearch Inc., Langcaster, PA, USA), and detected using enhanced chemiluminescence technique (Western Lightning Plus-ECL, Enhanced Chemiluminescence Substrate; Perkin Elmer, catalog # NEL105001EA, Waltham, MA, USA).

BRAF^V600E [3] = test system: T1, BRAF^V600E; assay: Western blot, BRAF^V600E degradation in Colo205; type: cell-based; conditions: for BRAF^V600E degradation: Colo205, 24 h, 100–500 nM; for BRAF^V600E degradation at higher concentration: Colo205, up to 10 µM (Figure S4)
Method: as §1, §2

Stability in human serum = type: in vitro ADME; conditions: male, 37 °C
Method: (§4) Stability of compounds was determined in RPMI medium and in human serum. DMSO stock solutions of compounds (10 mM) was added to RPMI (Sigma–Aldrich, Darmstadt, Germany) competed with 10% fetal bovine serum (FBS) plus 2 mM glutamine, penicillin (100 IU/mL), and streptomycin (100 μγ/mL; Sigma–Aldrich, Darmstadt, Germany) or to human serum (sterile-filtered from human male AB plasma, Sigma–Aldrich, Darmstadt, Germany), to obtain the 100 μM final concentration with 1% of DMSO. The resulting solutions were incubated at 37 °C for 48 h. At appropriate time intervals (0, 1, 5, 24 and 48 h), 300 µL of the reaction mixture was withdrawn and added to 300 µL of acetonitrile 0.1% TFA. The samples were vortexed, sonicated for 3 min and then centrifuged for 5 min at 2500× g. The clear supernatant was filtered through a PTFE 0.45 μm filter (VWR) and analyzed by RP-HPLC. Each experiment was independently repeated at least three times, and results are expressed as a percentage of unmodified compound over time. The half-life was determined by fitting the data with a one phase exponential decay equation (Graph Pad, Prism software vr. 5, GraphPad Software Inc., San Diego, CA, USA). […]
(§5) The column effluent was monitored at 226 and 300 nm, referenced against a 800 nm wavelength. […] Quantitation of compounds was obtained by calibration curves (linearity determined in a concentration range of 1–100 µM, r^2 > 0.99).

A375 melanoma cell line = assay: Antiproliferative activity, CellTiter-Glo, A375; type: cell-based; conditions: Homo sapiens, A-375, A375, 72 h
Method: Based on the previous preliminary tests, we sought to investigate the ability of synthesized compounds 5–15 and reference 1 in inhibiting the proliferation of BRAF^V600E mutant cancer cells. A first screening was conducted in A375 melanoma cell lines (Table 1, Figure S2). Encorafenib was employed for comparison.
(§6) The ability of compounds 5, 10, 11, 15–selected based on their chemical diversity–to inhibit cell proliferation was then tested both in A375 and in Colo205 cancer cell lines. […] P5B was obtained by joining the BRAF inhibitor BI 882370 to pomalidomide through a five PEG unit spacer (Figure S3). In compound P5B, the linker length was of 17 atoms, the same length of the spacer used to generate our compound 10. A375 and Colo205 cells were treated for 72 h with compounds 5, 10, 11, 15, and P5B, and the antiproliferative activity was measured by a luminescent ATP-based assay, which determines the number of viable cells based on their metabolic activity. […] However, P5B was more efficient in inhibiting tumor cell viability in comparison with the other selected compounds.
(§7) Cell viability was evaluated by means of CellTiter-Glo Luminescent Assay (Promega), which allows users to measure the ATP in the cell supernatant. The assay was performed according to manufacturer’s instructions. In brief, 4.10^3 A375 or Colo205 were seeded into 96-well plates and allowed to adhere at the wall overnight. Cells were treated for 72 h with BRAF inhibitor compounds. Then, 90 µL of the cell culture medium was transferred in a white 96-well plate, to which 10 µL of CellTiter-Glo was added before measurement of luminescence. Luminescence was measured by the SPARK M10 (Tecan, Männedorf, Switzerland) plate reader.

Colo205 cell line = assay: Antiproliferative activity, CellTiter-Glo, Colo205; type: cell-based; conditions: Homo sapiens, COLO 205; Colo205, 72 h (Figure 6b); read-out: Antiproliferative activity IC50 (nM ± SEM)
Method: as §6, §7

[4] = Stability in RPMI cell medium; type: in vitro ADME; conditions: RPMI cell culture medium with 10% FBS, RPMI with 10% FBS, 37 °C
Method: as §4, §5

B-RAF (V600E) = target: T2, B-RAF (V600E) (Homo sapiens, UniProt P15056, V600E); assay: BRAF^V600E inhibition assay (B-RAF (V600E) Kinase Assay Kit, Kinase-Glo MAX); type: biochemical; conditions: isolated BRAF^V600E, ATP 10 μM, 30 °C, 45 min; three experiments in duplicate; read-out: BRAF (V600E) Kinase Activity IC50 (nM ± SEM)
T2 construct: purchased BPS Bioscience
Method: In a 96-well plate, the different inhibitor solutions in DMSO were mixed with Buffer, ATP (10 μM) and Raf substrate. […] After a 15 min delay to equilibrate plate temperature, 50 μL of Kinase-Glo Max was added in each well, and the luminescence was measured according to supplier’s instruction. The results, reported as IC50 ± S.E.M., were calculated with GrapPad Prism 7 and derive from three different experiments run in duplicate.

[5] = test system: phosphorylation of MEK and ERK; assay: Western blot, BRAF signaling in Colo205; type: cell-based; conditions: Colo205, 24 h incubation
Method: as §1, §3

Colo205 cells = assay: Cell permeability in Colo205 cells; type: in vitro ADME; conditions: Colo205 cells (Table S1)
[6] = first screening (Table 1), read-out: Antiproliferative Activity IC50 ± SEM
[7] = second set of experiments (Figure 6a), read-out: Antiproliferative activity IC50 (nM ± SEM)

T2 sequence (P15056 whole entry V600E): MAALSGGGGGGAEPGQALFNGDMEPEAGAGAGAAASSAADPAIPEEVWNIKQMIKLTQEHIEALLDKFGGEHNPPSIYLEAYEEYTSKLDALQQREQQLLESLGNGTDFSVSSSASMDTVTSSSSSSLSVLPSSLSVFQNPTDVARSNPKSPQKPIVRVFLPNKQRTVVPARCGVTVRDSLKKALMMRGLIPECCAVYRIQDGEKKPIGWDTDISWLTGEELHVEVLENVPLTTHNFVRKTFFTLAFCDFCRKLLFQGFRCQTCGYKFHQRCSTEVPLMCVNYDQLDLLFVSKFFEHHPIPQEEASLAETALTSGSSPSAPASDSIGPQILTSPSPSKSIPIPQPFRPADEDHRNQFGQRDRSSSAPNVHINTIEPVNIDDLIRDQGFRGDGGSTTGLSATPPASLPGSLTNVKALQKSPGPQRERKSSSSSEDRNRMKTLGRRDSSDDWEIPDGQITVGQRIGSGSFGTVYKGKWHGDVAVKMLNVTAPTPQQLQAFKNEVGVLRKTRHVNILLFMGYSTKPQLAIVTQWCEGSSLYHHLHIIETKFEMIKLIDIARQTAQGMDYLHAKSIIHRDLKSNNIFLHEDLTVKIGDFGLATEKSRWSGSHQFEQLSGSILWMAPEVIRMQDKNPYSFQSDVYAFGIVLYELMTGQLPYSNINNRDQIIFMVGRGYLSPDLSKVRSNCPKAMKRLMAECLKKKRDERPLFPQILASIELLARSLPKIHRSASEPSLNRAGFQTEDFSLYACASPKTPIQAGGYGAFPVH

| SMILES | BRAF^V600E degradation (BRAF^V600E [1]) | BRAF^V600E degradation at higher concentration (BRAF^V600E [1]) | phosphorylation of MEK and ERK [2] | BRAF^V600E degradation (BRAF^V600E [3]) | BRAF^V600E degradation at higher concentration (BRAF^V600E [3]) | half-life at 100 μM (Stability in human serum) [h] | IC50 (A375 melanoma cell line; [6]) [nM] | IC50 (A375 melanoma cell line; [7]) [nM] | IC50 (Colo205 cell line) [nM] | half-life at 100 μM [4] [h] | IC50 (B-RAF (V600E)) [nM] | phosphorylation of MEK and ERK [5] | cell permeability (Colo205 cells) |
| --- | --- | --- | --- | --- | --- | --- | --- | --- | --- | --- | --- | --- | --- |
| CC(C)n1cc(-c2ccnc(NC[C@H](C)NC(=O)CCOCCOCCOCCOCCOCCNc3cccc4c3C(=O)N(C3CCC(=O)NC3=O)C4=O)n2)c(-c2cc(Cl)cc(NS(C)(=O)=O)c2F)n1 (stereo partly drawn) [Compound 10, N-((S)-1-((4-(3-(5-chloro-2-fluoro-3-(methylsulfonamido)phenyl)-1-isopropyl-1H-pyrazol-4-yl)pyrimidin-2-yl)amino)propan-2-yl)-1-((2-(2,6-dioxopiperidin-3-yl)-1,3-dioxoisoindolin-4-yl)amino)-3,6,9,12,15-pentaoxaoctadecan-18-amide] | not able to induce BRAF^V600E degradation | no degradation of the target protein | able to decrease phosphorylation of MEK and ERK | not able to induce BRAF^V600E degradation | no degradation of the target protein | 23 | 132 ± 1.95 | 194 ± 36 | 31 ± 10 | 19 | 75 ± 17 | able to decrease phosphorylation of MEK and ERK | – |
| CC(C)n1cc(-c2ccnc(NC[C@H](C)NC(=O)CCOCCOCCOCCNc3cccc4c3C(=O)N(C3CCC(=O)NC3=O)C4=O)n2)c(-c2cc(Cl)cc(NS(C)(=O)=O)c2F)n1 (stereo partly drawn) [Compound 8, N-((S)-1-((4-(3-(5-chloro-2-fluoro-3-(methylsulfonamido)phenyl)-1-isopropyl-1H-pyrazol-4-yl)pyrimidin-2-yl)amino)propan-2-yl)-3-(2-(2-(2-((2-(2,6-dioxopiperidin-3-yl)-1,3-dioxoisoindolin-4-yl)amino)ethoxy)ethoxy)ethoxy)propanamide] | – | – | – | – | – | 24 | 1760 ± 287 | – | – | 21 | 57 ± 7 | – | ability to reach the cytosolic compartment |
| CC(C)n1cc(-c2ccnc(NC[C@H](C)NC(=O)CCOCCOCCn3cc(CNc4cccc5c4C(=O)N(C4CCC(=O)NC4=O)C5=O)nn3)n2)c(-c2cc(Cl)cc(NS(C)(=O)=O)c2F)n1 (stereo partly drawn) [Compound 11, N-((S)-1-((4-(3-(5-chloro-2-fluoro-3-(methylsulfonamido)phenyl)-1-isopropyl-1H-pyrazol-4-yl)pyrimidin-2-yl)amino)propan-2-yl)-3-(2-(2-(4-(((2-(2,6-dioxopiperidin-3-yl)-1,3-dioxoisoindolin-4-yl)amino)methyl)-1H-1,2,3-triazol-1-yl)ethoxy)ethoxy)propanamide] | not able to induce BRAF^V600E degradation | no degradation of the target protein | able to decrease phosphorylation of MEK and ERK | not able to induce BRAF^V600E degradation | no degradation of the target protein | – | 389 ± 15.1 | 417 ± 33 | 104 ± 20 | – | 43 ± 16 | able to decrease phosphorylation of MEK and ERK | – |
